Results from patent US4785017A, “3,4-dihydro-2H-1-benzopyran derivatives” (Hoffmann-La Roche Inc., priority 1984, dated 1988).

Legend:
[1] = test system: SRS-A-induced constriction of the guinea pig ileum; test: Guinea Pig Ileum, In Vitro: inhibition of SRS-A-induced constriction (SRS-A antagonism); settings: SRS-A antagonism; SRS-A at EC50, 37° C., with atropine sulfate and pyrilamine maleate; read-out: In vitro Guinea Pig ileum IC50
Protocol: (a) Guinea Pig Ileum, In Vitro:
The guinea pig ileum bioassay system has been described by Orange Austen, Adv. Immunol. […] A 1.5 cm segment is removed from animals weighing 300-400 g and suspended in an organ bath containing 10 ml of Tyrodes solution with 10^-6 M atropine sulfate and 10^-6 M pyrilamine maleate. […] The SRS-A utilized in this screen is obtained by challenging chopped lung fragments from actively sensitized guinea pigs with egg albumin, in vitro. A dose-response curve to SRS-A challenge is established for the ileum. […] The drug concentration which inhibits, by 50%, the SRS-A-induced constriction of the guinea pig ileum is determined.

[2] = test system: leukotriene E4 induced bronchoconstriction; test: Guinea Pig Bronchoconstriction, In Vivo (Aerosol), leukotriene E4 challenge; parameters: species or system guinea pig (Hartley strain); settings: five minute aerosol exposure (% w/v aerosol solution); maximum constrictory dose of leukotriene E4 i.v.; propanolol pretreatment
Protocol: (b) Guinea Pig Bronchoconstriction, In Vivo (Aerosol):
Male guinea pigs (Hartley strain) weighing 300 to 500 g are anesthetized with urethane (2 g/kg) intraperitoneally and a polyethylene cannula is inserted into the jugular vein for drug administration. Tracheal pressure is recorded from a cannula inserted in the trachea and connected to a Statham pressure transducer. After surgical preparation of the animals, a period of time is allowed for pulmonary functions to stabilize. The test compound is administered according to the following protocol. Propanolol (0.1 mg/kg) is administered intravenously while the animals breathed spontaneously. Five minutes thereafter, the animals are exposed for a five minute period to a 1% (w/v) aerosol solution of test compound (adjusted to an alkaline pH where necessary for drug solubilization) or to distilled water of the appropriate pH (for control purposes). A Monaghan (Model 750) ultrasonic nebulizer is used to administer all test compounds by inhalation. The nebulizer ultrasonic frequency is adjusted to produce particles in the 1-8μ diameter range (average 3μ). Aqueous solutions are prepared freshly and introduced into the chamber of the nebulizer. The output of the nebulizer is made available to the animal by directing a bias flow of aerosol through a Y tube connected to the tracheal cannula. At the end of the exposure period, the animals are paralyzed with succinylcholine (1.2 mg/kg, i.v.) and mechanically respirated (Harvard rodent respirator) at 40 breaths/minute and 2.5 cc tidal volume. Animals are then challenged with a maximum constrictory dose of leukotriene E4 delivered intravenously 30 seconds after administration of the succinylcholine.
The change (cm H2 O) between pre and peak ventilatory pressure readings averaged for three control animals and five drug treated animals. The percent inhibition is calculated from the following formula: [formula] When various drug concentrations are tested, the percent inhibition at each concentration is plotted as log concentration (abscissa) versus percent inhibition (ordinate) and the IC50 is determined from linear regression analysis.

[3] = test system: leukotriene D4 induced bronchoconstriction; test: Guinea Pig Bronchoconstriction, In Vivo (Aerosol), leukotriene D4 challenge; parameters: species or system guinea pig (Hartley strain); settings: aerosol assay with leukotriene E4 replaced with leukotriene D4
[4] = test system: leukotriene D4 induced bronchoconstriction; test: Oral Testing of Leukotriene Antagonists, leukotriene D4 challenge; format: in vivo, guinea pig (Hartley strain, Charles River); settings: 10 mg/kg by the oral route, two hours prior to challenge with leukotriene D4
Protocol: (c) Oral Testing of Leukotriene Antagonists
Male guinea pigs (Hartley strain, Charles River) weighing 400 to 600 g were anesthetized with urethane (2 g/kg) intraperitoneally and a polyethylene cannula was inserted into the jugular vein for intravenous drug administration. Tracheal pressure (cm water) was recorded from a Statham pressure transducer. After surgical preparation of the animals, a period of time was allowed for spontaneous breathing to stabilize. […] Two minutes later, spontaneous breathing was arrested with succinylcholine chloride (1.2 mg/kg, i.v.) and the animals ventilated with a Harvard (Model #680) small animal respirator set at 40 breaths per minute and 4.0 cc stroke volume. The animals were challenged with a maximum constrictory does of either leukotriene C4 or leukotriene D4 or leukotriene E4 (25 ug/kg, i.v.) at 5 minutes. Control vehicle or test drug (adjusted to an alkaline pH where necessary for drug solubilization) was administered (10 mg/kg, p.o.) two hours prior to challenge with leukotriene. In order to determine the ID50 for a test drug, the dose is varied from 10 mg/kg, p.o. to 100, 50, 30, 20, 5, 3 and 1 mg/kg, p.o.
In order to determine oral duration of action, the time between exposure to test drug and challenge with leukotriene is varied.

IC50 [1] | Guinea Pig Bronchoconstriction In vivo aerosol - IC50(%) [2] | IC50 value in inhibiting bronchoconstriction (aerosol) [3] | Compound | inhibition of leukotriene D4 induced bronchoconstriction [4]
0.06 µM | 0.052% | 0.0056% | CCCc1c(OCCCCCOc2cc3c(cc2C(C)=O)CCC(C(=O)O)O3)ccc(C(C)=O)c1O (racemic) [racemic-6-acetyl-7-[5-(4-acetyl-3-hydroxy-2-propylphenoxy)pentyloxy]-3,4-dihydro-2H-1-benzopyran-2-carboxylic acid] | 
 |  |  | CCCc1c(OCCCCCOc2cc3c(cc2C(C)=O)CCC(CCCCC(=O)O)O3)ccc(C(C)=O)c1O (racemic) [racemic-6-acetyl-7-[5-(4-acetyl-3-hydroxy-2-propylphenoxy)pentyloxy]-3,4-dihydro-2H-1-benzopyran-2-pentanoic acid] | 46±14%
0.5 µM | 0.71% |  | CCCc1c(OCCCOc2ccc3c(c2CCC)OC(C)(CCC(=O)O)CC3)ccc(C(C)=O)c1O (racemic) [racemic-7-[3-(4-acetyl-3-hydroxy-2-n-propylphenoxy)propoxy]-3,4-dihydro-2-methyl-8-n-propyl-2H-1-benzopyran-2-propanoic acid] | 
0.06 µM | 0.14% |  | CCCc1c(OCCCOc2ccc3c(c2)OC(C(=O)O)CC3)ccc(C(C)=O)c1O (racemic) [racemic-7-[3-(4-acetyl-3-hydroxy-2-propyl)phenoxy)propoxy]-3,4-dihydro-2H-1-benzopyran-2-carboxylic acid] | 
0.1 µM | 0.20% |  | CCCc1c(OCCCOc2ccc3c(c2CCC)OC(C(=O)O)CC3)ccc(C(C)=O)c1O (racemic) [racemic-7-[3-(4-acetyl-3-hydroxy-2-propyl)phenoxy)propoxy]-3,4-dihydro-8-propyl-2H-1-benzopyran-2-carboxylic acid] | 
0.1 µM | > 1.0% |  | CCCc1c(OCCCOc2ccc3c(c2)OC(C)(CCC(=O)O)CC3)ccc(C(C)=O)c1O (racemic) [racemic-7-[3-(4-acetyl-3-hydroxy-2-propylphenoxy)propoxy]-3,4-dihydro-2-methyl-2H-1-benzopyran-2-propanoic acid] | 
0.1 µM | 0.67% |  | CCCc1c(OCCCOc2ccc3c(c2)OC(CC(=O)O)CC3)ccc(C(C)=O)c1O (racemic) [racemic-7-[3-(4-acetyl-3-hydroxy-2-propylphenoxy)propoxy]-3,4-dihydro-2H-1-benzopyran-2-acetic acid] | 
0.5 µM | 1.0% |  | CCCc1c(OCCCOc2cc3c(cc2C(C)=O)OC(C)(C(=O)O)CC3)ccc(C(C)=O)c1O (racemic) [racemic-7-acetyl-6-[3-(4-acetyl-3-hydroxy-2-propylphenoxy)propoxy]-3,4-dihydro-2-methyl-2H-1-benzopyran-2-carboxylic acid] | 
0.2 µM | 0.34% |  | CCCc1c(OCCCOc2cc3c(cc2C(C)=O)OC(C(=O)O)CC3)ccc(C(C)=O)c1O (racemic) [racemic-7-acetyl-6-[3-(4-acetyl-3-hydroxy-2-propylphenoxy)propoxy]-3,4-dihydro-2H-1-benzopyran-2-carboxylic acid] | 
0.3 µM | 0.59% |  | CCCc1c(OCCCOc2ccc3c(c2C(C)=O)OC(C(=O)O)CC3)ccc(C(C)=O)c1O (racemic) [racemic-8-acetyl-7[3-(4-acetyl-3-hydroxy-2-propylphenoxy)propoxy]-3,4-dihydro-2H-1-benzopyran-2-carboxylic acid] | 
0.1 µM |  | 0.018% | CCCc1c(OCCCCCOc2cc3c(cc2C(C)=O)CC[C@H](C(=O)O)O3)ccc(C(C)=O)c1O [(R)-6-acetyl-7-[5-(4-acetyl-3-hydroxy-2-propylphenoxy)pentyloxy]-3,4-dihydro-2H-1-benzopyran-2-carboxylic acid] | 
0.06 µM |  | 0.0018% | CCCc1c(OCCCCCOc2cc3c(cc2C(C)=O)CC[C@@H](C(=O)O)O3)ccc(C(C)=O)c1O [(S)-6-acetyl-7-[5-(4-acetyl-3-hydroxy-2-propylphenoxy)pentyloxy]-3,4-dihydro-2H-1-benzopyran-2-carboxylic acid] | 
